The values that follow come from patent publication US4057530A, “2-Phenyl-indole derivatives and process for preparing the same” (priority 1974, dated 1977).

Molecules are shown by their SMILES. Like-named read-outs stand apart in the source and are kept apart here.

The term LD50 denotes the dose expected to kill half of the subjects tested. Low values mean greater toxicity, high ones lower toxicity.

A short description of series [1]: Acute toxicity by oral route in mice (LD50). Type of series: in vivo. To be noted: mouse, in vivo, gummy suspension. The procedure: (§1) The study of the acute toxicity of the stabilizers listed below was carried out by determining the dose of substance which provoked the death of 50% of the treated animals (LD50). A gummy suspension of the substance under study was administered by oral route to groups of at least ten mice and the following results were observed: […]

Series [2] deals with mice. In words: Acute toxicity by oral route in mice (LD50). Type of series: in vivo. To be noted: LD50 study. The protocol:
as §1

Series [3] is described as follows: Static thermostability of stabilized resin, simplified method (GARDNER sub-scale), Compound D. Particulars: 185° C. The procedure:
(§2) The stabilizing power of the substances of the invention was studied from two points of view:
(§3) These studies were performed with six different formulae of vinyl resins (hereinafter referred to as Compounds).
(§4) The different compounds were mixed and calendered in a mixer of which the cylinders were heated to 160° C. The rigid sheets so obtained were then heated in an oven to a temperature between 180° C and 215° C, until incipient carbonization.
(§5) A stove with rotating drums, ventilated and equipped with a thermostat was used for this operation. In the trials described hereunder, the behaviour of a sheet containing the stabilizer to be tested was compared to that of a sheet of the same formula but containing 2-phenyl-indole as stabilizer.
(§6) 2. It is also possible to use a simplified method which is more rapid and with which valid results are also obtained: a reference scale is drawn up with sheets of thermally treated polyvinyl chloride, of which the colourations have been definitely determined in GARDNER degrees as above. A GARDNER sub-scale is thus obtained in polyvinyl chloride sheets which can be directly compared to the sheets to be tested without using the comparator.

A short description of series [4]: Static thermostability of stabilized resin, simplified method (GARDNER sub-scale), Compound E. Particulars: 185° C. The protocol:
as §2, §3, §4, §5, §6

Series [5] deals with mice. Type of series: in vivo. The protocol: as §1
Series [6] in a line: Static thermostability of stabilized resin, simplified method (GARDNER sub-scale), Compound A. Particulars: 210° C. The procedure: as §2, §3, §4, §5, §6
Finally, trials were carried out with Stabilizers 15, 16 and 17 and with 2-phenyl-indole. Compound A was used and the temperature was 210° C.

Series [7] can be described thus: Extractibility of the stabilizer from Compound A containing Stabilizer 16. The protocol: This study was carried out in accordance with the requirements of the Food and Drug Administration (U.S.A.).
The extractions were performed in semi-rigid bottles, prepared with Compounds Nos. 609 and 675, and with the following solvents: water, an aqueous solution of acetic acid (3%), ethanol-water 50/50, heptane.
The ratio of the volume of solvent to the surface of plastic material exposed to extraction was about 1 cm^2 to […] of solvent, taking into account the geometric characteristics of the bottles.
The quantity of stabilizer extracted was determined by colorimetric assay using p-dimethylaminobenzaldehyde, in accordance with the method described in Analytical Chemistry 36, 425-26 (1964).
The amounts of stabilizer assayed are expressed in μg per liter of extraction solvent or, which is the same, per 1000 cm^2 of surface submitted to extraction.
The same trials were carried out with Compound A containing 2-(4'-dodecylthio-phenyl)-indole (Stabilizer 16) as stabilizer and the following results were obtained: […]

As for `CCCCC(CC)COc1ccc(-c2cc3ccccc3[nH]2)cc1` (stereo not drawn) [Stabilizer 7, 2-(2"-ethyl-4'-hexyloxy-phenyl)-indole], the LD50 in series [1] is over 2000 mg/kg. Moreover, the Toxic symptoms result in the series on mice [2] was “none”. In series [3], the “Colouration given to the co-polymer” value was “less yellow with Stabilizer 7 than with 2-phenyl-indole”. Besides, the “Static thermostability compared with 2-phenyl-indole” value in series [3] is on record as “markedly superior to 2-phenyl-indole”. Also, the “Colouration of sheet (GARDNER sub-scale)” value is under 1 GARDNER degrees in series [3] (0 min); under 2 GARDNER degrees in series [3] (10 min); 2 GARDNER degrees in series [3] (20 min); under 3 GARDNER degrees in series [3] (30 min); under 1 GARDNER degrees in series [4] (0 min); under 1 GARDNER degrees in series [4] (10 min). Further, the “Colouration of sheet (GARDNER sub-scale)” value is listed as under 2 GARDNER degrees in series [4] (20 min) and under 3 GARDNER degrees in series [4] (30 min).

`CCCCSc1ccc(-c2cc3ccccc3[nH]2)cc1` [Stabilizer 15, 2-(4'-butylthio-phenyl)-indole]: the “LDO (maximal dose which does not provoke any death)” value with mice [5] (mouse, in vivo, po) is over 3000 mg/kg. The Toxic symptoms result with mice [5] (oral, mice, LDO study) was “none”. For the same compound, in series [6], the “Static thermostability compared with 2-phenyl-indole” value is reported as “very rapidly found to be superior to 2-phenyl-indole”. The “Colouration of sheet (GARDNER sub-scale)” value is on record as 1 GARDNER degrees in series [6] (0 min); 1 GARDNER degrees in series [6] (3 min); 2 GARDNER degrees in series [6] (6 min); 5 GARDNER degrees in series [6] (9 min); 10 GARDNER degrees in series [6] (12 min); 13 GARDNER degrees in series [6] (15 min). Further, the “Colouration of sheet (GARDNER sub-scale)” value in series [6] (18 min) is given as “burnt”.

Turning to `CCCCCCCCCCCCSc1ccc(-c2cc3ccccc3[nH]2)cc1` [Stabilizer 16, 2-(4'-n-dodecylthio-phenyl)-indole], the “LDO (maximal dose which does not provoke any death)” value with mice [5] (mouse, in vivo, po) is on record as over 3000 mg/kg. In addition, the Toxic symptoms entry in the series with mice [5] (mouse, in vivo, po) was “none”. In addition, the “Amount of stabilizer extracted” value in series [7] (3% aqueous acetic acid, 20 days) is recorded as under 3 μg per liter; in series [7] (aqueous ethanol 50/50, 9 days), under 10 μg per liter; in series [7] (heptane, 48 hours) it was 175 μg per liter; in series [7] (water, 10 days), under 3 μg per liter. Also, in series [6], the “Static thermostability compared with 2-phenyl-indole” value is “very rapidly found to be superior to 2-phenyl-indole”. Further, the “Colouration of sheet (GARDNER sub-scale)” value in series [6] (0 min) is listed as 1 GARDNER degrees; in series [6] (3 min), 1 GARDNER degrees; in series [6] (6 min) it was 2 GARDNER degrees; in series [6] (9 min), 5 GARDNER degrees; in series [6] (12 min), 10 GARDNER degrees; in series [6] (15 min), 13 GARDNER degrees. Also, the “Colouration of sheet (GARDNER sub-scale)” value in series [6] (18 min) is listed as “burnt”.

Regarding `Oc1ccc(-c2cc3ccccc3[nH]2)cc1` [Stabilizer 20, 2-(4'-hydroxy-phenyl)-indole], in series [1], the LD50 is over 3000 mg/kg. In addition, the Toxic symptoms result with mice [2] is given as “none”. In addition, the “Static thermostability compared with 2-phenyl-indole” value in series [6] is “markedly superior to 2-phenyl-indole”. Also, the “Colouration of sheet (GARDNER sub-scale)” value in series [6] (0 min) amounted to 1 GARDNER degrees; in series [6] (3 min), 1 GARDNER degrees; in series [6] (6 min), 2 GARDNER degrees; in series [6] (9 min), 4 GARDNER degrees; in series [6] (12 min), 9 GARDNER degrees; in series [6] (15 min), 11 GARDNER degrees.

Consider `Nc1ccccc1-c1cc2ccccc2[nH]1` [Stabilizer 23, 2-(2'-amino-phenyl)-indole], for which the 50% lethal dose (LD50) in series [1] was over 2000 mg/kg. Also, the Toxic symptoms entry in the series on mice [2] is recorded as “none”. The “Static thermostability compared with 2-phenyl-indole” value in series [6] is “superior to 2-phenyl-indole”. Further, the “Colouration of sheet (GARDNER sub-scale)” value is “pink” in series [6] (0 min); “pink” in series [6] (3 min); “pink” in series [6] (6 min); 4 GARDNER degrees in series [6] (9 min); 6 GARDNER degrees in series [6] (12 min); 12 GARDNER degrees in series [6] (15 min).
